Activity calls are given as the source filed them.
Columns and labels:
[1] = target: T1, Rac GTPase-activating protein 1 (Homo sapiens, UniProt Q9H0H5); experiment: blockers of MgcRacGAP-driven Rac1 GTP hydrolysis – biochemical, ADP Hunter fluorescence, primary and confirmatory, confirmation (AID 624330); type: functional
T1 sequence (Q9H0H5 whole entry): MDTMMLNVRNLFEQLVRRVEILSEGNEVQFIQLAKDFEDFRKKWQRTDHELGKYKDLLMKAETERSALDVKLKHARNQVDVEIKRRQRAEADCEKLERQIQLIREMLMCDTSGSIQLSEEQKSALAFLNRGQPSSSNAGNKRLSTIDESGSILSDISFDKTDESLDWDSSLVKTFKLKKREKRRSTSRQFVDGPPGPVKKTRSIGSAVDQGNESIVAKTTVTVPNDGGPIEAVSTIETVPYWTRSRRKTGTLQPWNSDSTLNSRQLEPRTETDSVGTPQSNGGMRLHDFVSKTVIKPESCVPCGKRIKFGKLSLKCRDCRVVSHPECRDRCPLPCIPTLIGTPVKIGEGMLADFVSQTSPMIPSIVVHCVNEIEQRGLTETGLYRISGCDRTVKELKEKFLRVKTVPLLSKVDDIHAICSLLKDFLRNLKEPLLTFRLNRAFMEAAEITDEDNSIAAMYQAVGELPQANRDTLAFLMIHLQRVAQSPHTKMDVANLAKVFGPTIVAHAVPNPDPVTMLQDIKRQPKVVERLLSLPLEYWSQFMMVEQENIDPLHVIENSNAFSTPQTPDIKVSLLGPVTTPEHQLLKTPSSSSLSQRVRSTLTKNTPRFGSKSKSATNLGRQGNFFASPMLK

[2] = target: Eukaryotic translation initiation factor 4E (Mus musculus, UniProt P63073); experiment: blockers of eIF4G binding by eIF4E – biochemical, TR-FRET, dose response (AID 855); type: functional;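 also: potency for disrupting eIF4E binding to eIF4GI seen as loss of FRET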
[3] = target: Induced myeloid leukemia cell differentiation protein Mcl-1 (Homo sapiens, UniProt Q07820); type: functional
Ephrin type-A receptor 4 = Ephrin type-A receptor 4 (Mus musculus, UniProt Q03137); experiment: EphA4 ligand-binding antagonists – biochemical, colorimetric, mouse EphA4, primary screen (AID 689); type: functional
[4] = target: DNA (cytosine-5)-methyltransferase 1 (Homo sapiens, UniProt P26358); experiment: inhibition of DNA methylation by DNMT1 – biochemical, fluorescent molecular beacon, confirmation (AID 602386); type: functional
[5] = reduced cellular PGC1a acetyl-lysine signal – cell-based, cherry-picked samples, dose response (AID 720514); type: functional;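 also: potency may reflect raised or lowered acetylation signal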
Interleukin-8 [6] = target: T2, Interleukin-8 (Homo sapiens, UniProt P10145); experiment: Dose Response confirmation of uHTS small molecule hits for cystic fibrosis induced NFkb Inhibitors in a PAF-induced IL8 counterscreen.; type: functional; details: read-out: IC50_Mean
T2 sequence (P10145 whole entry): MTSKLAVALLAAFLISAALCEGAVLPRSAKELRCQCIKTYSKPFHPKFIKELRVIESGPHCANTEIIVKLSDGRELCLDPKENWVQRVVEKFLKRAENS

Interleukin-8 [7] = target: T2, Interleukin-8; experiment: Dose Response confirmation of uHTS small molecule hits for cystic fibrosis induced NFkb Inhibitors in a TNFa-induced IL8 counterscreen.; type: functional; details: read-out: IC50_Mean
HEK293 = experiment: EBV LMP1 TES2 canonical NF-kB signalling blockers – cell-based, HEK293, luciferase, cherry-pick, dose response (AID 588343); type: functional; details: Homo sapiens
Melanocortin receptor 4 = Melanocortin receptor 4 (Homo sapiens, UniProt P32245); experiment: inhibitors of MC4R cAMP signaling – cell-based, TR-FRET, biased antagonists, dose response (AID 602298); type: functional;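 also: antagonist potency against agonist-stimulated cAMP production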
[8] = non-specific 3'UTR reporter inhibition in Clone20-Shn3RL – cell-based, Renilla luciferase, cherry-picked, counter-screen for Shn3 inhibitor project, dose response (AID 624133); type: functional
[9] = reduction of Shn3 3'UTR-driven luciferase in osteoblasts – cell-based, Clone20 osteoblasts, firefly luciferase, cherry-picked, dose response (AID 624132); type: functional;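 also: firefly luciferase luminescence from reporter carrying the Shn3 3'UTR in osteoblasts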
Escherichia coli = experiment: microbe, parasite or virus in culture
[10] = loss of viability in HepG2 cells – cell-based, CellTiter-Glo, cherry-picked, cytotoxicity control for Shn3 inhibitor project, dose response (AID 624134); type: functional
[11] = cAMP pathway inhibition in counterscreen cell line – TR-FRET cAMP detection, counter-screen for MC4R biased antagonist project, dose response (AID 602305); type: functional, cell-based;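 also: U2OS cells stimulated with forskolin near its EC80 as the cAMP inducer; potency is for inhibition of forskolin-stimulated cAMP signaling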
LIM domain kinase 1 = LIM domain kinase 1 (Homo sapiens, UniProt P53667); experiment: Navigating the Kinome. Panel member name: LIMK1; type: functional
[12] = target: Tyrosine-protein kinase receptor TYRO3 (Homo sapiens, UniProt Q06418); type: functional;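 also: TYRO3 value obtained as one member of a kinome-wide profiling panel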
[13] = target: Serine/threonine-protein kinase Chk1 (Homo sapiens, UniProt O14757); type: functional;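 also: measured as one member of a kinome-wide kinase profiling panel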
[14] = target: Serine/threonine-protein kinase Nek2 (Homo sapiens, UniProt P51955); type: functional
[15] = target: Dual specificity protein kinase CLK4 (Homo sapiens, UniProt Q9HAZ1); type: functional
[16] = target: Dual specificity mitogen-activated protein kinase kinase 1 (Homo sapiens, UniProt Q02750); experiment: Navigating the Kinome. Panel member name: MAP2K1; type: functional
[17] = target: Proto-oncogene tyrosine-protein kinase receptor Ret (Homo sapiens, UniProt P07949); type: functional;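 also: measured within a kinome-wide profiling panel, RET as the panel member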
[18] = target: Tyrosine-protein kinase JAK2 (Homo sapiens, UniProt O60674); type: functional;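 also: JAK2 tested as one member of a kinase panel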
[19] = target: Mitogen-activated protein kinase kinase kinase kinase 2 (Homo sapiens, UniProt Q12851); type: functional;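 also: measured as one member of a kinome-wide kinase panel, with MAP4K2 as the panel entry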
[20] = target: Dual specificity tyrosine-phosphorylation-regulated kinase 1A (Rattus norvegicus, UniProt Q63470); type: biochemical, Homo sapiens
Aurora kinase B = Aurora kinase B (Homo sapiens, UniProt Q96GD4); type: functional
Aurora kinase A = Aurora kinase A (Homo sapiens, UniProt O14965); type: functional;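 also: value from the Navigating the Kinome kinase panel profiling, panel entry STK6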
Chain of Aurora kinase A (O14965 whole entry): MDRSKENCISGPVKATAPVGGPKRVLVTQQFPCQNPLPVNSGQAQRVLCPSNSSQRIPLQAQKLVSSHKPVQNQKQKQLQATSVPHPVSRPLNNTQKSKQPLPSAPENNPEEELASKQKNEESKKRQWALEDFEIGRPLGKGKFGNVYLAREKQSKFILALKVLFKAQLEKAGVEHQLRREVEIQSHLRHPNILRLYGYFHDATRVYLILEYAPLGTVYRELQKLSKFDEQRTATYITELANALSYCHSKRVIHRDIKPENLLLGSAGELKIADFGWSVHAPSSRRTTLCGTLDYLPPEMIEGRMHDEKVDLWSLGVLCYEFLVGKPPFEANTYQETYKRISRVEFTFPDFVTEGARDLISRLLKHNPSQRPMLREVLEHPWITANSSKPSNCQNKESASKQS

Chain of Serine/threonine-protein kinase Nek2 (P51955 whole entry): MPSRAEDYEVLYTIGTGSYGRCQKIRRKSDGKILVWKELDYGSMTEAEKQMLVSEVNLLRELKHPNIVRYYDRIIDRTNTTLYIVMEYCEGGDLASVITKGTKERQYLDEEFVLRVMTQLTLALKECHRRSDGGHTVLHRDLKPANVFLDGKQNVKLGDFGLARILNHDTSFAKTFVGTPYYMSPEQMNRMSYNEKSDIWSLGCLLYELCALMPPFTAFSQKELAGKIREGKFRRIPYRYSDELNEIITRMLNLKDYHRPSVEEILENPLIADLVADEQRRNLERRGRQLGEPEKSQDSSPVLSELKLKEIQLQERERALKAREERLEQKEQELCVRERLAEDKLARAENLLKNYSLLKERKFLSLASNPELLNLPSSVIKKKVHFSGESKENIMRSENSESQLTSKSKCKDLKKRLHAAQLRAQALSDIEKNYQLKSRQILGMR
Chain of Serine/threonine-protein kinase Chk1 (O14757 whole entry): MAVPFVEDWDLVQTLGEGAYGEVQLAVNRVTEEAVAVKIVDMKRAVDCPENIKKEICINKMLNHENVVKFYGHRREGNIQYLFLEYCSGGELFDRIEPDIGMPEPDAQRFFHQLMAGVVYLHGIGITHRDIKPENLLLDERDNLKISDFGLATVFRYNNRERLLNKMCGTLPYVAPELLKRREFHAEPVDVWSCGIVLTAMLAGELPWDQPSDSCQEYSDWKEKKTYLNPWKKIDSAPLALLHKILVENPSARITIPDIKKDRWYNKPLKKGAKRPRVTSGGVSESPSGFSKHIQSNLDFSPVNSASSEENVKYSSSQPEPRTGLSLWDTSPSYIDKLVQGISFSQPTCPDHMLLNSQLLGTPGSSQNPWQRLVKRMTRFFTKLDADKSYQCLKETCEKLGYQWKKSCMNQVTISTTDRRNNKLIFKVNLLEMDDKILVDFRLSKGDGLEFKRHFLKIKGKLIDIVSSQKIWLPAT
Chain of Proto-oncogene tyrosine-protein kinase receptor Ret (P07949 whole entry): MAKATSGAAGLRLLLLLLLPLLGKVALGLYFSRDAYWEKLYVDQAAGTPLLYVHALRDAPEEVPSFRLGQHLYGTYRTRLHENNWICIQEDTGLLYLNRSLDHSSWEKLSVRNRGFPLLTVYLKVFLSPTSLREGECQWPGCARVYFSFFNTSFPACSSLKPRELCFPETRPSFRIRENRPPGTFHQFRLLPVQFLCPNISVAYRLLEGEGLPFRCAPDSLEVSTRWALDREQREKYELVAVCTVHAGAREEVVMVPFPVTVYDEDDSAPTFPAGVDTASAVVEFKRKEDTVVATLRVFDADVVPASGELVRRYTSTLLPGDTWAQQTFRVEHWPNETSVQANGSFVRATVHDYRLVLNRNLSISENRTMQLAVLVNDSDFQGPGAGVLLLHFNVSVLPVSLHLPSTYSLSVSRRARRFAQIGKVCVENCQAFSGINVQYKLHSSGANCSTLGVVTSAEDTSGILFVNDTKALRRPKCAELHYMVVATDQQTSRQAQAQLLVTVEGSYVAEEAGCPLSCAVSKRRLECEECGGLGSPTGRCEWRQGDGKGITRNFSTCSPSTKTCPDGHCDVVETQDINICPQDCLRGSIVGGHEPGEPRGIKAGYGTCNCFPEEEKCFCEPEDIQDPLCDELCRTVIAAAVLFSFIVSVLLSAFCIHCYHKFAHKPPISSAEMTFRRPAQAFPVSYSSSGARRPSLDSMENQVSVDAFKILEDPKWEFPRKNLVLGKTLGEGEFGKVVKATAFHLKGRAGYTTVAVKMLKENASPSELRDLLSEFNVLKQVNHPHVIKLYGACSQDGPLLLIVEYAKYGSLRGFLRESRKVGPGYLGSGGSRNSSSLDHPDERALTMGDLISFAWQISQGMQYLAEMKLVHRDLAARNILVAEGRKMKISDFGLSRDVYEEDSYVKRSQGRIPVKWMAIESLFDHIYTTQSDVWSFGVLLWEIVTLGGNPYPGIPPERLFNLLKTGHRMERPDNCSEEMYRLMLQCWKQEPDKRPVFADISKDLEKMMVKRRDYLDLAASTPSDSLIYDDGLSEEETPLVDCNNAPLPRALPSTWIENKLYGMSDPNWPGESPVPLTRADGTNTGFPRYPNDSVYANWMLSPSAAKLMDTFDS
Chain of Tyrosine-protein kinase JAK2 (O60674 whole entry): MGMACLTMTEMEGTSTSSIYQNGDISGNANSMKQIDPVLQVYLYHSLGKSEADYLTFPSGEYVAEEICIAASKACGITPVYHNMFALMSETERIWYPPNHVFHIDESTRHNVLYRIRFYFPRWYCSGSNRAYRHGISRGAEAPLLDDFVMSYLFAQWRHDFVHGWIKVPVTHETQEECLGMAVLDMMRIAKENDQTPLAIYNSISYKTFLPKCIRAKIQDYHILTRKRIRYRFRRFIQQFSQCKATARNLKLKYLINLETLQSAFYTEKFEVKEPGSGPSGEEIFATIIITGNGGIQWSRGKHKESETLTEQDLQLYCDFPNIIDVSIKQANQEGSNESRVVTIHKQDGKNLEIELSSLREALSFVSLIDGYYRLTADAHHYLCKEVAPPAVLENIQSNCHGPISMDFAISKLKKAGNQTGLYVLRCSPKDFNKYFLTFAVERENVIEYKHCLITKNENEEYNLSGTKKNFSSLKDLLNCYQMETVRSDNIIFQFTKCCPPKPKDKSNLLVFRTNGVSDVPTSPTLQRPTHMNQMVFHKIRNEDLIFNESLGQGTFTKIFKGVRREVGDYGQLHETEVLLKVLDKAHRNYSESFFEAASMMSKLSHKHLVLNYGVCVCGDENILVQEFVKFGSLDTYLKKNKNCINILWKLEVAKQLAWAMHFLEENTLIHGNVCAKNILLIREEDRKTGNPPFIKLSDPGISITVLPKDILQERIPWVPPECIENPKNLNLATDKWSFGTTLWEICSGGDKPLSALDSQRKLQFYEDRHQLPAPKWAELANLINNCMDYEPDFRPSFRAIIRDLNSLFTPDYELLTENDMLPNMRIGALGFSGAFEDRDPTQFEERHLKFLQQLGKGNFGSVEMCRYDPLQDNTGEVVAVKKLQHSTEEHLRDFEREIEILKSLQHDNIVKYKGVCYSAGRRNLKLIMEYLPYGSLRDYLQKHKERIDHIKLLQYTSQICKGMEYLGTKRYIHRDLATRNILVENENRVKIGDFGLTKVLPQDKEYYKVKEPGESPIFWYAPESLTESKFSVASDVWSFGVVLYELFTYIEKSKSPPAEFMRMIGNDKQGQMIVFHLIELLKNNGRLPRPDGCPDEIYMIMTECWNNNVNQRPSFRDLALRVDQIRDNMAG
Chain of Mitogen-activated protein kinase kinase kinase kinase 2 (Q12851 whole entry): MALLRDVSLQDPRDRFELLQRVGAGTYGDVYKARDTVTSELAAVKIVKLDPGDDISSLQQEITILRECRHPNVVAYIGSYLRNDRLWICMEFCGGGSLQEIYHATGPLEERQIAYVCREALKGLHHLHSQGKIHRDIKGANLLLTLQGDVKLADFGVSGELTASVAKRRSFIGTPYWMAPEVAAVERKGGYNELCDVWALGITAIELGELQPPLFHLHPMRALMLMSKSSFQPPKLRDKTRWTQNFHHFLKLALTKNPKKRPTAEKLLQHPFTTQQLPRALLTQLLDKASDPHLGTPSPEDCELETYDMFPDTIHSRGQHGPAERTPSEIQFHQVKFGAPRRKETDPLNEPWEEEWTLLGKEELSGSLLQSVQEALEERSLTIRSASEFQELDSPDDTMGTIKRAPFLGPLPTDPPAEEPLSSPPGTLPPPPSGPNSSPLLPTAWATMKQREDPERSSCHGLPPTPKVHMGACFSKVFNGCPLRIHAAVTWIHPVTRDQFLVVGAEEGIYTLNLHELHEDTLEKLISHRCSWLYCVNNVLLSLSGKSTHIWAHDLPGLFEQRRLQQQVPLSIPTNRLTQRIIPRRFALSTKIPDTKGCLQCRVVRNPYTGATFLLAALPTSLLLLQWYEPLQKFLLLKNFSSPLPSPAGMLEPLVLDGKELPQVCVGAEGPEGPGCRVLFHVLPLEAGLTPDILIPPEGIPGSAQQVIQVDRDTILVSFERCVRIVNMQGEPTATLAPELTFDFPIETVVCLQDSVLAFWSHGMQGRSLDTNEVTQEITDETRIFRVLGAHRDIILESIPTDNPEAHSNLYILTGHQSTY
Chain of Dual specificity protein kinase CLK4 (Q9HAZ1 whole entry): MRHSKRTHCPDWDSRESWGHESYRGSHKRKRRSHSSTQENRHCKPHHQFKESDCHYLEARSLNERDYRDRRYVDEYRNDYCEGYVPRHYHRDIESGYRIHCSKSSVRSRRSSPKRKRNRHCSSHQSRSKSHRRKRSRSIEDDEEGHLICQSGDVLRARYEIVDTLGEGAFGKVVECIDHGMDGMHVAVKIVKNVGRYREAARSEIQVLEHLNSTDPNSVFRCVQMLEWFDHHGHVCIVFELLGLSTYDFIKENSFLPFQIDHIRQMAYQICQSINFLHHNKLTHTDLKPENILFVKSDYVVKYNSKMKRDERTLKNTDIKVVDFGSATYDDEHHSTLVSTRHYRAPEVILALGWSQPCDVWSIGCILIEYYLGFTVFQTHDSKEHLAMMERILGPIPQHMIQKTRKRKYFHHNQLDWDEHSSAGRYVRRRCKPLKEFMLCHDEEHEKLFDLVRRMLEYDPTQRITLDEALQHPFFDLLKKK

In the case of `C=CCOC(=O)c1cc(-c2ccc(/C=C3\C(=O)NC(=O)C(C#N)=C3C)o2)ccc1Cl`, the IC50 [1] is reported as 229 µM (active), the IC50 [2] is reported as 12.8 µM (active) and the IC50 [3] is reported as 1.2 µM (active). The IC50 (Ephrin type-A receptor 4) was 1.45 µM (active) and the IC50 [4] was 5 µM (active).
With `CCCN(CC)c1[nH]cnc2nncc1-2` the AC50 [5] was 3.26 µM (active), the IC50 (Interleukin-8 [6]) was 9.12 µM (active) and the IC50 (Interleukin-8 [7]) was 42.3 µM (inactive). The AC50 (HEK293) was 9.96 µM (active).
For `CCCCCCCN(c1ccccc1)[C@@H]1C[C@H]2CCCC(=O)N3CC[C@@H](C1)[C@@H]23`, the IC50 (Melanocortin receptor 4) was 7.91 µM (active), the AC50 [8] was 4.54 µM (active) and the AC50 [9] was 11.4 µM (active). For the same compound, the AC50 (Escherichia coli) was 13.7 µM (active), the AC50 [10] was 46.4 µM (active) and the IC50 [11] was 22.6 µM (inactive).
In the case of `COc1cc(-c2ccc(=O)n(Cc3cccc(C)c3)n2)cc(OC)c1OC`, the Ki (LIM domain kinase 1) is reported as 1 µM (active), the Ki [12] is reported as 2.51 µM (active) and the Ki [13] is reported as 1 µM (active). The Ki [14] was 3.16 µM (active) and the Ki [15] was 2 µM (active).
With `O=C1CN=C(c2ccc(F)cc2)c2cn[nH]c2N1` the Ki [16] was 79.4 µM (active), the Ki [17] was 79.4 µM (active) and the Ki [18] was 100 µM (active). The Ki [19] was 63.1 µM (active).
In the case of `COc1ccc(-c2cnnc(N/N=C/c3ccc(O)c(O)c3)n2)cc1`, the IC50 [1] is reported as 63.9 µM (active) and the AC50 [20] is reported as 0.482 µM (active).
For `Nc1ccc(-c2csc3ccnc(N)c23)cc1`, the Ki (Aurora kinase B) was 0.2 µM (active) and the Ki (Aurora kinase A) was 1.26 µM (active).
